Reference: paper PMC10224004, “Modulation of Distribution and Diffusion through the Lipophilic Membrane with Cyclodextrins Exemplified by a Model Pyridinecarboxamide Derivative” (Pharmaceutics, 2023)
Where two headings read alike, the source gives them in different places.

Key:
[1] = Shake-flask solubility in 1-octanol and dissolution thermodynamics; assay type: physicochemical; conditions: for Molar solubility S2 × 10^1 in 1-Octanol: value = S2 × 10^1
Description: The solubility of the investigated drugs in 1-octanol and n-hexane was determined by the shake-flask technique. To this end, the glass vials containing the solutions with the excess amount of the compound were placed in an air thermostat and stirred at a predetermined temperature for no less than 24 h (equilibrium state). After this, the suspensions were left for 5 h or more to precipitate the undissolved drug and centrifuged (Biofuge pico, Thermo Electron LED GmbH, Langenselbold, Germany) at a predetermined temperature during 20 min (10,000 rpm). The aliquots of the clear solutions were taken and examined via a spectrophotometer (Cary-50 Varian, Palo Alto, CA, USA, Software Version 3.00 (339)). The molar concentrations of the compounds in the solvents were calculated using calibration curves at the appropriate wavelength characteristic for each substance. The experimental results were reported as an average of at least three replicated experiments with an accuracy of 2–4%. In order to evaluate the thermodynamic parameters of the IPN dissolution in 1-octanol and n-hexane, the molar solubility ( S2 ) was recalculated to the mole fraction ( X2 ) by the equation:(1) X2=M2S2/S2(M1−M2)+1000ρ, where M1 and M2 are the molar masses of IPN and organic solvent, respectively, and ρ (g∙cm^−3) is the density of the pure solvents. The linear functions describing the temperature dependences of the solubility within the temperature interval from 293.2 ± 0.5 K to 313.2 ± 0.5 K for both organic solvents were derived:(2) lnX2=A+B/T
The apparent solution enthalpies ΔHsol0 were determined by the van’t Hoff equation:(3) ∂(lnX2)/∂T=ΔHsol0/RT^2
The apparent dissolution Gibbs energies ( ΔGsol ) and entropies ( ΔSsol ) were calculated at a standard temperature of 298.2 K and 310.2 K:(4) ΔGsol298.2/310.2=−RT(lnX2298.2/310.2) (5) ΔGsol298.2/310.2=ΔHsol0−TΔSsol298.2/310.2 where R is the universal gas constant.

[2] = ΔlogD parameter (logDapp oct/buf − logDapp hex/buf); assay type: physicochemical; conditions: 310.2 K; pH 7.4; cyclodextrin in buffer phase as in the label
Description: Apparent distribution coefficients of the compounds were measured in two systems: 1-octanol/buffer pH 7.4 and n-hexane/buffer pH 7.4 by the shake-flask technique at 310.2 ± 0.5 K in the absence (for IPN, INZ and iNAM) and in the presence of cyclodextrins (HP-β-CD and M-β-CD) in the aqueous phase (for IPN only). The concentrations of cyclodextrins were: 0.0115 M, 0.025 M and 0.035 M. The experiments were carried out according to the literature. In brief, the following experimental procedure was performed. Aqueous buffer pH 7.4 and organic solvent (1-octanol or n-hexane) were mixed during 48 h to obtain mutually saturated phases. The stock solutions containing the drug were prepared in buffer pH 7.4 saturated with the organic solvent. Both aliquots of the aqueous stock solution and organic solvent were placed in screwed glass vials and mixed at 310.2 ± 0.5 K during 3 days. The concentrations of the stock solutions were approximately 6.0 × 10^−3 M for both systems. […] The drug concentrations were determined using spectrophotometer (Cary-50 Varian, Palo Alto, CA, USA, Software Version 3.00 (339)). […] The distribution coefficients were calculated using the following equation:(6) DappOrg/buf=C2Org/buf⋅V^buf/Org/C2buf/Org⋅V^Org/buf where DappOrg/buf is the distribution coefficient calculated from the concentrations of the compounds expressed in molar scale, C2Org/buf and C2buf/Org are the molar concentrations of the drug in the mutually saturated organic solvent/buffer and buffer/organic solvent phases, respectively, and V^buf/Org and V^Org/buf are the volumes of the saturated buffer and organic solvent phases, respectively. […] As Abraham et al. stated, the difference between the distribution parameters in these systems ( ΔlogD ) can be applied to assess the specific interactions including a hydrogen-bonding impact to the drug transport properties and can be calculated as follows:(7) ΔlogD=logDappoct/buf−logDapphex/buf

[3] = Membrane permeability in Franz diffusion cell; assay type: in vitro ADME; conditions: for Papp at 5 h: pH 7.4, PermeaPad barrier, read-out: permeability coefficient (Papp)
Description: Membrane permeability coefficients of the studied drugs were measured in the Franz diffusion cell of vertical type (PermeGear, Inc., Hellertown, PA, USA) with 7 mL/1 mL volumes of the donor and acceptor solutions through the reverse dialysis set up. The PermeaPad barrier (PHABIOC, Fritz-Souchon-Str.27 32339 Espelkamp Germany, www.innome.de) (0.785 cm^2 effective surface area) was mounted between the donor and acceptor chambers of the diffusion cell. The temperature was maintained at 310.2 ± 0.5 K throughout the experiment. Samples of 0.5 mL were withdrawn each 30 min from the acceptor solution and replaced with an equal amount of fresh buffer. Permeability experiments lasted over five hours in all cases. The solutions concentrations were analyzed via spectrophotometer (Spectramax 190; Molecular Devices Corporation, San Jose, CA, USA) in 96-well UV black plates (Costar) at a wavelength of 264 nm and 266 nm for IPN and INZ/iNAM, respectively. The dependences of the amount of the permeated drug over the surface area (dQ/A) on time (t) were plotted and flux (J) across the membrane was calculated by the equation:(11) J=dQ/A×dt The apparent permeability coefficients (Papp) were determined by normalizing the flux measured over the concentration of the drug in the donor compartment (C0) by the equation:(12) Papp=J/C0 Each permeability experiment was carried out in triplicate.
Similarly to the distribution, the permeability coefficients were obtained in the absence (for IPN, and iNAM) and in the presence of cyclodextrins (HP-β-CD and M-β-CD) (for IPN only) in the donor solution. The concentrations of cyclodextrins were 0.0115 M, 0.025 M and 0.035 M. The permeability coefficient for INZ through the PermeaPad barrier was determined in our previous investigation and taken in the present study for the sake of comparison.

[4] = Shake-flask solubility in 1-octanol and dissolution thermodynamics; assay type: physicochemical; conditions: T 290.2 K; value = S2 × 10^1
[5] = Shake-flask solubility in n-hexane and dissolution thermodynamics; assay type: physicochemical; conditions: T 290.2 K; value = S2 × 10^3

What does the source list for CC(C)NNC(=O)c1ccncc1 [IPN, N′-isopropyl isonicotinic hydrazide]?
TΔSsol298.2 ([1]; 1-octanol, 298.2 K): 3.42 ± 0.096 kcal/mol; ΔGsol298.2 ([1]; 1-octanol, 298.2 K): 1.48 ± 0.024 kcal/mol; ζHsol ([1]; 1-octanol, 298.2 K (first value of cell)): 58.9%; ΔHsol298.2/310.2 ([1]; 1-octanol, 298.2 K and 310.2 K): 4.9 ± 0.048 kcal/mol; TΔSsol310.2 ([1]; 1-octanol, 310.2 K): 3.56 ± 0.096 kcal/mol; ΔGsol310.2 ([1]; 1-octanol, 310.2 K): 1.34 ± 0.024 kcal/mol; ζHsol ([1]; 1-octanol, 310.2 K (second value of cell)): 57.9%; solubility higher in 1-octanol than in n-hexane ([1]; 310.2 K, ratio of molar solubilities): 338 fold; Molar solubility S2 × 10^1 in 1-Octanol ([1]; T 293.2 K): 4.44 ± 0.09 × 10^1 (M); Molar solubility S2 × 10^1 in 1-Octanol ([1]; T 298.2 K): 5.06 ± 0.06 × 10^1 (M); Molar solubility S2 × 10^1 in 1-Octanol ([1]; T 303.2 K): 5.73 ± 0.11 × 10^1 (M); Molar solubility S2 × 10^1 in 1-Octanol ([1]; T 310.2 K): 6.86 ± 0.18 × 10^1 (M); ΔlogD [2]: 3.33; steady penetrate rate - flux J∙10^4 ([3]; PermeaPad barrier, 310.2 K, pH 7.4, printed value = J × 10^4, cyclodextrin in donor solution as in the label): 1.25 ∙10^4 (μM∙cm‐2∙s‐1); Papp∙10^5 ([3]; PermeaPad barrier, 310.2 K, pH 7.4, value = Papp × 10^5, cyclodextrin in donor solution as in the label): 2.03±0.05 ∙10^5 (cm∙s‐1); Papp at 5 h ([3]; 310.2 K, without cyclodextrins): 20.3 ×10⁻⁶ cm/s; Papp at 5 h ([3]; enhancement in the presence of M-β-CD in donor solution (highest value reached)): ≤ 28.7 ×10⁻⁶ cm/s; Papp at 5 h ([3]; slight decrease upon growing HP-β-CD concentration in donor solution (lowest value reached)): ≥ 17.8 ×10⁻⁶ cm/s; Molar solubility S2 × 10^1 in 1-Octanol [4]: 4.09 ± 0.08 × 10^1 (M); Molar solubility S2 × 10^3 in n-Hexane [5]: 0.72 ± 0.01 × 10^3 (M)
